This data set in a line: in vitro. As to conditions: human, hela cells, % viability.

In the case of `COC(=O)Cn1c(CN2CCN(c3ccccc3F)CC2)nc2c1c(=O)n(C)c(=O)n2C` [CBK269444], the viability (as a rule, a read-out of living cells in per cent, often relative to untreated cells) at 28.5 h, 10 µM worked out at 93.1%. In the case of `O=C(NCCN1CCOCC1)NC(=O)c1ccc(Cl)cc1` [CBK269446], the viability at 28.5 h, 10 µM was 88.2%.

Consider `COC(=O)c1c(NC(=O)CC2NCCNC2=O)sc(C)c1C` (stereo not drawn) [CBK269447], for which the viability at 28.5 h, 10 µM amounted to 92.1%.

As for `CC1CN(Cc2nc3c(c(=O)[nH]c(=O)n3C)n2Cc2cccc(Cl)c2)CC(C)O1` (stereo not drawn) [CBK269450], the viability at 28.5 h, 10 µM was 105%.

With `CCCc1cc(C(=O)OC)c(NC(=O)CC2Nc3ccccc3NC2=O)s1` (stereo not drawn) [CBK269451], the viability at 28.5 h, 10 µM amounted to 107%.

Take `CN1CCN(c2nc3c(c(=O)n(C)c(=O)n3C)n2CCSc2nc3ccccc3o2)CC1` [CBK269452]: the viability at 28.5 h, 10 µM came out at 90%. With `CCOC(=O)Cn1c(CN2CCC(Cc3ccccc3)CC2)nc2c1c(=O)n(C)c(=O)n2C` [CBK269454], the viability at 28.5 h, 10 µM stood at 89.8%. For `N#Cc1nc(/C=C/c2cccs2)oc1NCCCn1ccnc1` [CBK269455], the viability at 28.5 h, 10 µM was 84.1%. `COc1cc(Cl)c(C)cc1NC(=O)c1ncn(-c2ccccc2)n1` [CBK269456]: the viability at 28.5 h, 10 µM stood at 101%. As to `Cc1cccc(/C(C#N)=C\c2cn(CC(=O)O)c3ccccc23)c1` [CBK269457], the viability at 28.5 h, 10 µM is 110%. Regarding `Cc1cc(Nc2ccccc2C)c2cc(C(=O)O)ccc2n1` [CBK269458C], the viability at 28.5 h, 10 µM amounted to 103%. Take `O=C(NCc1ccco1)NC(=O)c1ccc(Cl)cc1` [CBK269461]: the viability at 28.5 h, 10 µM came out at 95.8%. On the same count and under the same terms, for `COc1ccc(NC(=O)NC(=O)c2ccc(Cl)cc2)c(OC)c1` [CBK269462] the value was 93.1%; for `FC(F)(F)c1cccc(OCc2nnn[nH]2)c1` [CBK269466], 88.4%; for `O=C(CSc1nc(O)cc(O)n1)Nc1ccc(I)cc1` [CBK269467], 103%.

In the case of `CS(=O)(=O)c1ccccc1S(=O)(=O)N1CCN(c2nc3ccccc3s2)CC1` [CBK269468], the viability at 28.5 h, 10 µM turned out to be 97.7%. As to `Cn1c(=O)[nH]c(=O)c2c1nc(SCCN1CCCCC1)n2CCCc1ccccc1` [CBK269469], the viability at 28.5 h, 10 µM is 91.7%.

Turning to `CC12CCC(C(=O)O)(c3nc4c(ccc5ncccc54)nc31)C2(C)C` (stereo not drawn) [CBK269470], the viability at 28.5 h, 10 µM was determined as 91.1%. `COc1cc(NC(=O)CS(=O)(=O)c2ccccc2)c(OC)cc1Cl` [CBK269471]: the viability at 28.5 h, 10 µM stood at 86.7%. On the same count and under the same terms, as for `Clc1ccc(OCc2n[nH]c(-c3ccccn3)n2)cc1` [CBK269472], the figure is 90.2%; as for `Fc1ccc(OCc2nnn[nH]2)c(F)c1` [CBK269473], 99.9%; as for `Cc1ccc(SCC(=O)NCc2nc(-c3ccccc3)no2)cc1` [CBK269474], 102%. Consider `NC(=O)COc1ccc(/C=C/c2cc(C(F)(F)F)[nH]c(=O)n2)cc1` [CBK269475], for which the viability at 28.5 h, 10 µM came to 90.6%.

Take `N#Cc1c(NC(=O)CSc2ncnc3c2cnn3-c2ccccc2)sc2c1CCCC2` [CBK269478]: the viability at 28.5 h, 10 µM was determined as 92.6%. In the case of `COc1ccc(S(=O)(=O)NC(C)C(=O)Nc2cc(Cl)ccc2OC)cc1` (stereo not drawn) [CBK269479], the viability at 28.5 h, 10 µM amounted to 104%. In the case of `O=C(NCc1cccnc1)C(=O)Nc1ccc(F)cc1F` [CBK269481], the viability at 28.5 h, 10 µM amounted to 101%.

Regarding `Cc1ccc(NC(=O)Nc2ccc(F)cc2)cc1S(=O)(=O)N(C)C` [CBK269482], the viability at 28.5 h, 10 µM worked out at 92.8%. For `CC(C)(C)Nc1nc(OCC#N)nc(N2CCCCC2)n1` [CBK269483], the viability at 28.5 h, 10 µM came out at 97.2%.

`CS(=O)(=O)c1ncc(Cl)c(C(=O)N(Cc2ccccc2)c2ccccn2)n1` [CBK269489]: the viability at 28.5 h, 10 µM is 95%. On the same count and under the same terms, for `O=S(=O)(Nc1ccccn1)N1CCCCC1` [CBK269490] the value was 92.3%; for `Cc1c(C(=O)Nc2sc3c(c2C(=O)NCc2cccnc2)CCC3)oc2ccccc12` [CBK269491], 87.8%; for `COc1ccc(C)cc1S(=O)(=O)N(C)CC(=O)Nc1cccc(Cl)c1` [CBK269493], 88.5%.

Regarding `c1ccc2c(OCc3nnn[nH]3)cccc2c1` [CBK269495], the viability at 28.5 h, 10 µM amounted to 103%. Turning to `CC1(C)C2CCC1(CS(=O)(=O)N1CCC(C(N)=O)CC1)C(=O)C2` (stereo not drawn) [CBK269499], the viability at 28.5 h, 10 µM was 102%. As to `CCN(CC(=O)NCc1cccnc1)S(=O)(=O)c1ccc(F)cc1` [CBK269503], the viability at 28.5 h, 10 µM is 85.3%.

For the compound `CN1CCN(C(=O)C2CCN(S(=O)(=O)c3ccc4ccccc4c3)CC2)CC1` [CBK269504], the viability at 28.5 h, 10 µM is 88.1%. As for `COC(=O)c1c(NC(=O)C(=O)NCc2ccccn2)sc2c1CCCC2` [CBK269505], the viability at 28.5 h, 10 µM came to 95.2%.

Take `CC(=O)Cn1c(CN2CCOCC2)nc2c1c(=O)n(C)c(=O)n2C` [CBK269508]: the viability at 28.5 h, 10 µM came out at 97.5%. As to `COc1ccc(S(=O)(=O)N2CCN(C)CC2)cn1` [CBK269511], the viability at 28.5 h, 10 µM came out at 85.9%. In the case of `O=C(O)c1cc(-n2c(S)nnc2-c2ccc3ccccc3n2)ccc1Cl` [CBK269512], the viability at 28.5 h, 10 µM worked out at 86.1%. Regarding `O=C(O)c1ccc(CSc2nc(-c3ccccc3)cc(C(F)(F)F)n2)o1` [CBK269514], the viability at 28.5 h, 10 µM came out at 105%. Same read-out and setting: for `O=C(CCCc1nc(-c2ccccc2Cl)no1)NCc1cccnc1` [CBK269516] the value was 77.8%; for `CS(=O)(=O)N(Cc1cc2ccccc2nc1O)CC1CCCO1` (stereo not drawn) [CBK269517], 86.1%; for `COc1ccc2ncc(C(=O)O)c(Nc3ccccc3C)c2c1` [CBK269522C], 104%.

Regarding `Cn1c(=O)c2c(nc(CN3CCN(Cc4ccccc4)CC3)n2CCc2ccccc2)n(C)c1=O` [CBK269523], the viability at 28.5 h, 10 µM was 90.9%. In the case of `Cc1ccc(S(=O)(=O)NC(=O)N(Cc2ccccc2)Cc2ccco2)cc1` [CBK269524], the viability at 28.5 h, 10 µM came to 93%.

For the compound `CCOc1ccc(S(=O)(=O)NCc2ccncc2)cc1NC(C)=O` [CBK269527], the viability at 28.5 h, 10 µM was 88%. In the case of `CC1Cc2ccccc2N1C(=O)CSc1nnc(N)s1` (stereo not drawn) [CBK269530], the viability at 28.5 h, 10 µM came to 94.3%. Take `CCn1c(SCC(=O)Nc2cc(C)ccc2F)nnc1-c1ccccc1O` [CBK269532]: the viability at 28.5 h, 10 µM is 91.4%. Consider `CCc1nnc2sc(-c3ccccc3Br)nn12` [CBK269533], for which the viability at 28.5 h, 10 µM is 67.4%. Regarding `CC(=O)Nc1cccc(NC(=O)c2ccc(CN3CCc4ccccc4C3)cc2)c1` [CBK269534], the viability at 28.5 h, 10 µM was determined as 92.2%. The same measure, in the same setting: as for `Cc1cccc(OCCn2c(CCNC=O)nc3ccccc32)c1C` [CBK269539], the figure is 104%. With `COC(=O)c1ccc(OCc2nnn[nH]2)cc1` [CBK269544], the viability at 28.5 h, 10 µM amounted to 88.7%. Turning to `O=C(CCSc1ccccc1)Nc1ccccc1C(=O)N1CCCCC1` [CBK269545], the viability at 28.5 h, 10 µM was determined as 87.3%. As for `CCN1CCN(Cc2nc3c(c(=O)n(C)c(=O)n3C)n2CCc2ccccc2)CC1` [CBK269547], the viability at 28.5 h, 10 µM was found to be 110%. `CCC(=O)Nc1ccc(C(=O)Nc2ccc(S(=O)(=O)N3CCCCC3)cc2)cc1` [CBK269549]: the viability at 28.5 h, 10 µM turned out to be 84%. Turning to `Cn1c(=O)[nH]c(=O)c2c1nc(N1CCCCC1)n2CCCSc1nc2ccccc2s1` [CBK269550], the viability at 28.5 h, 10 µM amounted to 103%. Regarding `Cc1nnc2sc(-c3ccncc3)nn12` [CBK269553], the viability at 28.5 h, 10 µM stood at 84.6%. As to `COc1ccc(S(=O)(=O)NCc2ccccn2)cc1NC(C)=O` [CBK269554], the viability at 28.5 h, 10 µM worked out at 103%. Take `Cc1cc(C(F)(F)F)nc(NCc2ccco2)n1` [CBK269555]: the viability at 28.5 h, 10 µM was found to be 105%. Take `CN(Cc1ccccc1)c1nc2c(c(=O)n(C)c(=O)n2C)n1CCSc1ncccn1` [CBK269564]: the viability at 28.5 h, 10 µM amounted to 97.7%. In the case of `COc1ccc(NS(=O)(=O)c2ccc(OCC(=O)N3CCN(C)CC3)cc2)cc1Cl` [CBK269565], the viability at 28.5 h, 10 µM amounted to 85.8%. For `Cc1ccc2nsnc2c1NC(=O)CN1CCC(C)CC1` [CBK269568], the viability at 28.5 h, 10 µM was found to be 86.2%. Regarding `O=S(=O)(NCc1ccccc1)N1CCCCCC1` [CBK269569], the viability at 28.5 h, 10 µM is 101%. For `O=C(O)C(Nc1nc(C(F)(F)F)nc2ccccc12)c1ccccc1` (stereo not drawn) [CBK269570], the viability at 28.5 h, 10 µM amounted to 106%.

For the compound `Cc1cccc(C(=O)NCCCNC(=O)c2ccncc2)c1` [CBK269572], the viability at 28.5 h, 10 µM was 92.8%.

For the compound `C=CCn1c(SCCC(=O)O)nc2c1c(=O)n(C)c(=O)n2C` [CBK269573], the viability at 28.5 h, 10 µM was 79.3%.

Take `c1ccc(-c2nc3ccccc3nc2N2CCNCC2)cc1` [CBK269574C]: the viability at 28.5 h, 10 µM came out at 85%. Regarding `CN1C(=O)N(C)C(=O)C(Cc2ccccn2)(Cc2ccccn2)C1=O` [CBK269577], the viability at 28.5 h, 10 µM (bulk resorufin, single well) was 97.5%. As to `Cc1ccc(-c2cc3ccccn3c2C(=O)CSc2nncn2C)cc1` [CBK269580], the viability at 28.5 h, 10 µM is 83.5%. Regarding `NC(=O)COc1ccc(CNc2ccc(Oc3ccccc3)cc2)cc1Cl` [CBK269584], the viability at 28.5 h, 10 µM turned out to be 89.4%.

With `CCOc1ccc(Oc2nc(N(C)C)nc(N3CCOCC3)n2)nn1` [CBK269585], the viability at 28.5 h, 10 µM worked out at 104%. On the same count and under the same terms, for `O=C(CN1CCN(S(=O)(=O)N2CCCCCC2)CC1)Nc1cc(Cl)ccc1Cl` [CBK269587] the value was 90.1%; for `Cc1ccc(S(=O)(=O)Cc2ccc(C(=O)N3CCN(Cc4ccccc4)CC3)cc2)cc1` [CBK269588], 86.1%; for `CCOc1ccc(CNCc2ccc(C(=O)O)cc2)cc1OC` [CBK269590C], 87.3%. With `O=C(CNC(=O)c1ccc(Br)cc1)NC1CCCC1` [CBK269591], the viability at 28.5 h, 10 µM is 90.3%. On the same count and under the same terms, for `Cn1c(=O)[nH]c(=O)c2[nH]c(CN3CCN(Cc4ccccc4)CC3)nc21` [CBK269592] the value was 98.5%.

Turning to `COc1ccc(C(=O)N(Cc2ccco2)Cc2cc3ccccc3nc2O)cc1` [CBK269594], the viability at 28.5 h, 10 µM is 95.9%. Consider `CCOC(=O)CC(=O)COc1noc2nc(C)cc(C)c12` [CBK269595], for which the viability at 28.5 h, 10 µM stood at 98.2%.

As to `Cc1ccc(S(=O)(=O)Cc2cccc(C(=O)N3CCN(Cc4ccccc4)CC3)c2)cc1` [CBK269596], the viability at 28.5 h, 10 µM is 93%. As for `O=C(CSc1nnc(-c2ccncc2)s1)NNC(=O)c1cccs1` [CBK269600], the viability at 28.5 h, 10 µM worked out at 82.3%.

Values taken from publication PMC12040169 (PLOS Biology, 2025).
